Experimental data reported in PubChem BioAssay (NCI).
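In this assay, cells in 96-well plates receive the compound at five concentrations for 48 hours. Endpoints are linearly interpolated between the surrounding concentrations. GI50 marks 50% less growth. TGI: concentration producing complete growth inhibition.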

How the values were obtained:
Experiment in all cases: NCI anticancer screen, dose series, 48 h
OVCAR-4 ovarian = system: OVCAR-4 ovarian
M14 melanoma = system: M14 melanoma
NCI/ADR-RES ovarian = system: NCI/ADR-RES ovarian
SNB-19 CNS = system: SNB-19 CNS
SK-MEL-5 melanoma = system: SK-MEL-5 melanoma
SK-OV-3 ovarian = system: SK-OV-3 ovarian
HT29 colon = system: HT29 colon
EKVX NSCLC = system: EKVX NSCLC
DU-145 prostate = system: DU-145 prostate
HCT-116 colon = system: HCT-116 colon
OVCAR-8 ovarian = system: OVCAR-8 ovarian
CAKI-1 renal = system: CAKI-1 renal
U251 CNS = system: U251 CNS
MALME-3M melanoma = system: MALME-3M melanoma
A549 NSCLC = system: A549 NSCLC
HOP-92 NSCLC = system: HOP-92 NSCLC
NCI-H460 lung = system: NCI-H460 lung
RXF 393 renal = system: RXF 393 renal
T-47D breast = system: T-47D breast
SR leukemia = system: SR leukemia
SK-MEL-28 melanoma = system: SK-MEL-28 melanoma
SNB-75 CNS = system: SNB-75 CNS
UACC-257 melanoma = system: UACC-257 melanoma
SN12C renal = system: SN12C renal
CCRF-CEM leukemia = system: CCRF-CEM leukemia
A498 renal = system: A498 renal
MDA-MB-435 = system: MDA-MB-435
ACHN renal = system: ACHN renal
TK-10 renal = system: TK-10 renal
SF-539 CNS = system: SF-539 CNS
COLO 205 colon = system: COLO 205 colon
HL-60(TB) leukemia = system: HL-60(TB) leukemia
UO-31 renal = system: UO-31 renal
HS 578T breast = system: HS 578T breast
SK-MEL-2 melanoma = system: SK-MEL-2 melanoma
RPMI-8226 leukemia = system: RPMI-8226 leukemia
BT-549 breast = system: BT-549 breast
HCT-15 colon = system: HCT-15 colon
SF-268 CNS = system: SF-268 CNS
LOX IMVI melanoma = system: LOX IMVI melanoma
OVCAR-3 ovarian = system: OVCAR-3 ovarian
K-562 leukemia = system: K-562 leukemia
MDA-MB-231 breast = system: MDA-MB-231 breast
OVCAR-5 ovarian = system: OVCAR-5 ovarian
PC-3 prostate = system: PC-3 prostate
MCF7 breast = system: MCF7 breast
MOLT-4 leukemia = system: MOLT-4 leukemia
IGROV1 ovarian = system: IGROV1 ovarian
SW-620 colon = system: SW-620 colon
UACC-62 melanoma = system: UACC-62 melanoma
HOP-62 NSCLC = system: HOP-62 NSCLC
HCC-2998 colon = system: HCC-2998 colon
SF-295 CNS = system: SF-295 CNS
786-0 renal = system: 786-0 renal
NCI-H522 lung = system: NCI-H522 lung
KM12 colon = system: KM12 colon

CN1CCN(Cc2ccc(NC(=O)c3cncc(C#Cc4cnn5cccnc45)c3)cc2C(F)(F)F)CC1
GI50 (OVCAR-4 ovarian): 2.88 µM | TGI (OVCAR-4 ovarian): 13.1 µM | GI50 (M14 melanoma): 1.06 µM | TGI (M14 melanoma): 3.34 µM | GI50 (NCI/ADR-RES ovarian): 3.49 µM | TGI (NCI/ADR-RES ovarian): 12.7 µM | GI50 (SNB-19 CNS): 4.05 µM | TGI (SNB-19 CNS): 12.6 µM | GI50 (SK-MEL-5 melanoma): 2.6 µM | TGI (SK-MEL-5 melanoma): 8.94 µM | GI50 (SK-OV-3 ovarian): 3.3 µM | TGI (SK-OV-3 ovarian): 10.6 µM | GI50 (HT29 colon): 1.36 µM | TGI (HT29 colon): 5.58 µM | GI50 (EKVX NSCLC): 5.01 µM | TGI (EKVX NSCLC): 16.7 µM | GI50 (DU-145 prostate): 2.94 µM | TGI (DU-145 prostate): 9.25 µM | GI50 (HCT-116 colon): 0.941 µM | TGI (HCT-116 colon): 2.62 µM | GI50 (OVCAR-8 ovarian): 2.87 µM | TGI (OVCAR-8 ovarian): 10.4 µM | GI50 (CAKI-1 renal): 1.8 µM | TGI (CAKI-1 renal): 7.53 µM | GI50 (U251 CNS): 3.3 µM | TGI (U251 CNS): 14.1 µM | GI50 (MALME-3M melanoma): 0.322 µM | TGI (MALME-3M melanoma): 1.83 µM | GI50 (A549 NSCLC): 2.85 µM | TGI (A549 NSCLC): 9.01 µM | GI50 (HOP-92 NSCLC): 0.376 µM | TGI (HOP-92 NSCLC): 4 µM | GI50 (NCI-H460 lung): 2 µM | TGI (NCI-H460 lung): 4.72 µM | GI50 (RXF 393 renal): 2.25 µM | TGI (RXF 393 renal): 4.52 µM | GI50 (T-47D breast): 6.08 µM | TGI (T-47D breast): 22 µM | GI50 (SR leukemia): 2.45 µM | TGI (SR leukemia): 6.4 µM | GI50 (SK-MEL-28 melanoma): 1.86 µM | TGI (SK-MEL-28 melanoma): 8.55 µM | GI50 (SNB-75 CNS): 2.84 µM | TGI (SNB-75 CNS): 12.3 µM | GI50 (UACC-257 melanoma): 2.92 µM | TGI (UACC-257 melanoma): 12.2 µM | GI50 (SN12C renal): 2.66 µM | TGI (SN12C renal): 10.4 µM | GI50 (CCRF-CEM leukemia): 2.28 µM | TGI (CCRF-CEM leukemia): 6.47 µM | GI50 (A498 renal): 8.19 µM | TGI (A498 renal): 19.8 µM | GI50 (MDA-MB-435): 2 µM | TGI (MDA-MB-435): 8.71 µM | GI50 (ACHN renal): 2.29 µM | TGI (ACHN renal): 6.84 µM | GI50 (TK-10 renal): 3.99 µM | TGI (TK-10 renal): 9.78 µM | GI50 (SF-539 CNS): 1.12 µM | TGI (SF-539 CNS): 2.75 µM | GI50 (COLO 205 colon): 1.4 µM | TGI (COLO 205 colon): 3.31 µM | GI50 (HL-60(TB) leukemia): 0.598 µM | TGI (HL-60(TB) leukemia): 2.67 µM | GI50 (UO-31 renal): 2.28 µM | TGI (UO-31 renal): 8.57 µM | GI50 (HS 578T breast): 2.65 µM | TGI (HS 578T breast): 10.3 µM | GI50 (SK-MEL-2 melanoma): 1.04 µM | TGI (SK-MEL-2 melanoma): 2.55 µM | GI50 (RPMI-8226 leukemia): 1.83 µM | TGI (RPMI-8226 leukemia): 5.1 µM | GI50 (BT-549 breast): 4.63 µM | TGI (BT-549 breast): 14.5 µM | GI50 (HCT-15 colon): 2.8 µM | TGI (HCT-15 colon): 10.2 µM | GI50 (SF-268 CNS): 2.54 µM | TGI (SF-268 CNS): 6.33 µM | GI50 (LOX IMVI melanoma): 1.23 µM | TGI (LOX IMVI melanoma): 3.12 µM | GI50 (OVCAR-3 ovarian): 3.88 µM | TGI (OVCAR-3 ovarian): 12.9 µM | TGI (K-562 leukemia): 1.32 µM | GI50 (MDA-MB-231 breast): 1.39 µM | TGI (MDA-MB-231 breast): 7.58 µM | GI50 (OVCAR-5 ovarian): 2.45 µM | TGI (OVCAR-5 ovarian): 12.1 µM | GI50 (PC-3 prostate): 3.06 µM | TGI (PC-3 prostate): 13.3 µM | GI50 (MCF7 breast): 1.29 µM | TGI (MCF7 breast): 4.39 µM | GI50 (MOLT-4 leukemia): 2.13 µM | TGI (MOLT-4 leukemia): 7.02 µM | GI50 (IGROV1 ovarian): 2.12 µM | TGI (IGROV1 ovarian): 7.63 µM | GI50 (SW-620 colon): 1.67 µM | TGI (SW-620 colon): 5.01 µM | GI50 (UACC-62 melanoma): 2.9 µM | TGI (UACC-62 melanoma): 13.3 µM | GI50 (HOP-62 NSCLC): 2.75 µM | TGI (HOP-62 NSCLC): 9.35 µM | GI50 (HCC-2998 colon): 2.4 µM | TGI (HCC-2998 colon): 10.8 µM | GI50 (SF-295 CNS): 10.9 µM | TGI (SF-295 CNS): 23.2 µM | GI50 (786-0 renal): 1.83 µM | TGI (786-0 renal): 3.3 µM | GI50 (NCI-H522 lung): 1.71 µM | TGI (NCI-H522 lung): 3.51 µM | GI50 (KM12 colon): 0.0255 µM | TGI (KM12 colon): 4.38 µM
